The structures appear in SMILES notation. Inconclusive results and toxic doses are left out.

For the assay, the system named is BDF1 mice, intracerebral B16 melanoma, median survival T/C. The assay can be described thus: NCI In Vivo Anticancer Drug Screen. Data for tumor model B16 Melanoma (intracerebral) in B6D2F1 (BDF1) mice. Conditions: endpoint: median survival time, higher = longer survival. As to the method:
The antitumor activity of compounds was measured in mice bearing transplantable tumors. Survival or tumor size were measured and the results are expressed as the measurement made in the treated group (T) divided by the measurement made in the vehicle treated control group (C). The tumor model used in this assay is B16 Melanoma (intracerebral) in B6D2F1 (BDF1) mice

For the compound `COC(COC(=O)N1CCN(C=O)CC1)C1=C(N2CC2)C(=O)C(C)=C(N2CC2)C1=O` (stereo not given), the T/C (dose: 0.75 mg/kg/injection, schedule: Q01DX009 (ip), vehicle: saline) is 103 % of control; the T/C (dose: 1.5 mg/kg/injection, schedule: Q01DX009 (ip), vehicle: saline) is 105 % of control; the T/C (dose: 3.0 mg/kg/injection, schedule: Q01DX009 (ip), vehicle: saline) was 114 % of control; the T/C (dose: 6.0 mg/kg/injection, schedule: Q01DX009 (ip), vehicle: saline) is 86 % of control.
In the case of `O=NN(CCF)C(=O)NCCO`, the T/C by setting is: (dose: 13.0 mg/kg/injection, schedule: Q01DX001 (ip), vehicle: saline) 169 % of control; (dose: 21.6 mg/kg/injection, schedule: Q01DX001 (ip), vehicle: saline) 209 % of control; (dose: 26.7 mg/kg/injection, schedule: Q01DX001 (ip), vehicle: Klucel (hydroxypropylcellulose) (HPC)) 90 % of control; (dose: 36.0 mg/kg/injection, schedule: Q01DX001 (ip), vehicle: saline) 392 % of control; (dose: 40.0 mg/kg/injection, schedule: Q01DX001 (ip), vehicle: Klucel (hydroxypropylcellulose) (HPC)) 338 % of control; (dose: 60.0 mg/kg/injection, schedule: Q01DX001 (ip), vehicle: Klucel (hydroxypropylcellulose) (HPC)) 220 % of control.
For the compound `O=NN(CCCl)C(=O)NC1OC(CO)C(O)C(O)C1O` (stereo not given), the T/C is 112 % of control (dose: 0.31 mg/kg/injection, schedule: Q01DX009 (ip), vehicle: saline); 109 % of control (dose: 0.62 mg/kg/injection, schedule: Q01DX009 (ip), vehicle: saline); 115 % of control (dose: 1.25 mg/kg/injection, schedule: Q01DX009 (ip), vehicle: saline); 106 % of control (dose: 2.5 mg/kg/injection, schedule: Q01DX009 (ip), vehicle: saline); 122 % of control (dose: 5.0 mg/kg/injection, schedule: Q01DX009 (ip), vehicle: saline).
`CCCCCCC(=O)O[C@H]1CC[C@H]2[C@@H]3CCC4=CC(=O)CC[C@]4(C)[C@H]3CC[C@]12C`: the T/C reads like this: (dose: 8.0 mg/kg/injection, schedule: Q01DX009 (ip), vehicle: Klucel (hydroxypropylcellulose) (HPC)) 107 % of control; (dose: 16.0 mg/kg/injection, schedule: Q01DX009 (ip), vehicle: Klucel (hydroxypropylcellulose) (HPC)) 98 % of control; (dose: 32.0 mg/kg/injection, schedule: Q01DX009 (ip), vehicle: Klucel (hydroxypropylcellulose) (HPC)) 100 % of control; (dose: 64.0 mg/kg/injection, schedule: Q01DX009 (ip), vehicle: Klucel (hydroxypropylcellulose) (HPC)) 96 % of control; (dose: 128.0 mg/kg/injection, schedule: Q01DX009 (ip), vehicle: Klucel (hydroxypropylcellulose) (HPC)) 103 % of control.

For the origin of these results see PubChem BioAssay AID196 (DTP/NCI, 2004).
